Laboratory results as given in BindingDB's records for doi:10.1016/S0960-894X(00)80682-4 (1993).

Experiments:
[1] = Tested for its activity to inhibit the binding of [125I]CCK-33 to Cholecystokinin type B receptor in guinea pig brain
[2] = Tested for its activity to inhibit the binding of [125I]gastrin to gastric glands (gastrin) in guinea pig
[3] = as above; remark: listed apart in the source

With `Cn1c(C(=O)Nc2cc3c4ccccc4nc-3c[nH]2)cc2ccccc21` [1-Methyl-1H-indole-2-carboxylic acid (9H-beta-carbolin-3-yl)-amide] the IC50 [1] was over 100 µM and the IC50 [2] was over 100 µM.

With `O=C(Nc1cc2c3ccccc3nc-2c[nH]1)c1ccccc1` [N-(9H-beta-Carbolin-3-yl)-benzamide] the IC50 [3] was over 100 µM and the IC50 [1] was 223 µM.

`O=C(Cc1ccccc1)Nc1cc2c3ccccc3nc-2c[nH]1` [N-(9H-beta-Carbolin-3-yl)-2-phenyl-acetamide] gave an IC50 [3] of 14 µM and an IC50 [1] of 34 µM.
